Results taken from US20260232662A1, “MIR-124 INDUCER, AND PREPARATION METHOD THEREFOR AND USE THEREOF” (NANJING SYNNOCARE PHARMACEUTICAL TECHNOLOGY CO., LTD., priority 2023, published 2026).

Assays:
[1] = test system: DSS-induced IBD in mice; assay: Preventive and therapeutic effects on DSS-induced inflammatory bowel disease (IBD) in mice; format: in vivo; conditions: for preventive and therapeutic effects on DSS-induced IBD (body weight, DAI, colon length) relative to ABX464: further experiments, figures not given; for colon length as % of normal control values / Total Disease Activity Index (DAI) Scores / total DAI scores / Colon length / reduction in total DAI scores compared to the model group: 40 mg/kg p.o. q.d.; for colon length as % of normal control values: model group 77.32%; for Total Disease Activity Index (DAI) Scores / total DAI scores: final day; for Total Disease Activity Index (DAI) Scores / Colon length: mean ± S.E.M.; for Total Disease Activity Index (DAI) Scores: model group 14.50; for total DAI scores: model group 14.5 points; for Colon length: last experimental day, normal control 6.44, model group 4.98
Excerpt: This study evaluated the preventive and therapeutic effects of the compounds of the present invention on dextran sulfate sodium (DSS)-induced IBD in mice. The experiment utilized female C57BL/6 mice (purchased from Beijing Vital River Laboratory Animal Technology Co., Ltd.) to establish the DSS-induced IBD model.
Female C57BL/6 mice (6-8 weeks old) were purchased from Beijing Vital River Laboratory Animal Technology Co., Ltd. Upon arrival, the mice were housed in individually ventilated cages (IVC) under specific pathogen-free (SPF) conditions, with 2-6 mice per cage. They were provided with ad libitum access to food and water and maintained at a temperature of 20-26° C. (68-79° F.), relative humidity of 40-70%, and a 12-hour light/dark cycle (lights on from 08:00 to 20:00). After a 7-day acclimatization period, experiments were initiated.
Test compounds and ABX464 vehicle: 5% DMSO+10% Solutol HS-15+85% saline, stored at 4° C.
DSS solution: 2% (w/v) DSS in autoclaved drinking water, prepared fresh before use.
The mice were randomly allocated into eight groups according to body weight: normal control group (negative control), model group (DSS group), ABX464 treatment group, test compound groups (administered with Compounds 19, 43, 59, 84, and 89 of the present invention at 40 mg/kg, p.o., q.d.)
Following a 7-day acclimation period, the model group and compound treatment groups were administered 2% DSS aqueous solution ad libitum for 7 days starting from Day 0, followed by 3 days of normal water consumption. All groups received daily oral gavage of their respective vehicles or test compounds for 10 consecutive days beginning on the trial commencement date. During the experimental period, body weight changes in mice were monitored and recorded daily, the Disease Activity Index (DAI) was scored each day with the total score calculated on the final day, and on the last experimental day all animals were humanely euthanized followed by colon collection and length measurement.
The experimental data were expressed as mean±standard error of the mean (mean±S.E.M.). Statistical analysis was performed using GraphPad Prism or SPSS software with appropriate statistical methods. A value of P<0.05 was considered statistically significant.

[2] = test system: miR-124; assay: Induction of miR-124 expression in PBMC cells (qPCR); format: cell-based; conditions: Homo sapiens, 72 h, 0.1 μM compound, human PBMCs stimulated with PMA/ionomycin, miR-191 reference gene, read-out: miR-124 expression, Fold change vs DMSO
In short: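 Human PBMCs (3.0*10^6 cells/well) were stimulated with PMA 10 ng/mL plus ionomycin 200 ng/mL for 48 h, then given compound at 0.1 μM final for 72 h. miR-124 was measured by RT-qPCR against miR-191 as reference gene. Expression is relative to DMSO control.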

[3] = In vivo pharmacokinetic evaluation in mice; conditions: mouse; male ICR mice, po, 10 mg/kg, plasma
Method: The compound was administered orally (p.o.) at a dose of 10 mg/kg. The test formulation was prepared at a final concentration of 0.4 mg/mL in 5% DMSO+45% PEG400+50% aqueous solution or suspension. Male ICR mice (9 per group) were sampled at three discontinuous time points (n=3 mice/time point). Approximately 80 μL of blood was collected via orbital or cardiac puncture at 5 min, 15 min, 30 min, 1 h, 2 h, 4 h, 8 h, and 24 h post-dose. All whole blood samples were collected in EDTA K2-containing tubes. After centrifugation at 4° C. (4000 rpm, 10 min), plasma was collected and stored below −40° C. for subsequent analysis. Compound concentrations in plasma were determined by liquid chromatography-tandem mass spectrometry (LC-MS/MS), and pharmacokinetic parameters were derived from the plasma concentration-time curves.

[4] = day 10, 40 mg/kg p.o. q.d., female C57BL/6 mice, 2% DSS

SMILES | fold induction at 0.1 µM [2] | AUC(0-t) [3] | Cmax [3] | Tmax [3] | half-life [3] | also measured
Fc1cc(Nc2nc3cc(Cl)cc(Cl)c3n3ccnc23)ccc1C(F)(F)F [Compound B97, 7,9-dichloro-N-(3-fluoro-4-(trifluoromethyl)phenyl) imidazolo[1,2-a] quinoxalin-4-amine] | 26.2 | – | – | – | – | preventive and therapeutic effects on DSS-induced IBD (body weight, DAI, colon length) relative to ABX464 [1]: outperformed the reference drug ABX464
FC(F)(F)Oc1ccc(Nc2nc3cccc(Cl)c3n3ccnc23)cc1 [Compound B1, 9-chloro-N-(4-(trifluoromethoxy)-phenyl)imidazolo [1,2-a]quinoxalin-4-amine] | 43.8 | 3590 ng·h/mL | 450 ng/mL | 1 h | 2.58 h | –
FC(F)(F)Oc1ccc(Nc2nc3cc(Cl)ccc3n3ccnc23)cc1 [Compound B7, 7-chloro-N-(4-(trifluoromethoxy)phenyl)imidazolo [1,2-a]quinoxalin-4-amine] | 32 | 3240 ng·h/mL | 378 ng/mL | 2 h | 3.05 h | preventive and therapeutic effects on DSS-induced IBD (body weight, DAI, colon length) relative to ABX464 [1]: outperformed the reference drug ABX464
FC(F)(F)c1ccc(NC2=Nc3c(Cl)cc(Cl)cc3N3CCN=C23)cc1 [Compound 89] | 24.3 | 1860 ng·h/mL | 454 ng/mL | 2 h | 3.46 h | colon length as % of normal control values [1]: 99.07%; body weight loss percentage [1, 4]: 1.85%; Total Disease Activity Index (DAI) Scores [1]: 10.33; total DAI scores [1]: 10.33 points; Colon length [1]: 6.38 cm
Fc1cc(Nc2nc3c(Cl)cccc3n3ccnc23)ccc1OC(F)(F)F [Compound 18] | 17.6 | 1840 ng·h/mL | 365 ng/mL | 2 h | 3.78 h | –
FC(F)(F)Oc1ccc(Nc2nc3ccc(Cl)cc3n3ccnc23)cc1 [Compound B4, 8-chloro-N-(4-(trifluoromethoxy)phenyl)imidazolo [1,2-a]quinoxalin-4-amine] | 33.1 | 2850 ng·h/mL | 271 ng/mL | 2 h | 3.26 h | –
FC(F)(F)Oc1ccc(NC2=Nc3cccc(Cl)c3N3CCN=C23)cc1 [Compound B118, 9-chloro-N-(4-(trifluoromethoxy)phenyl)-1,2-dihydroimidazo[1,2-a] quinoxalin-4-amine] | 28.8 | 1880 ng·h/mL | 269 ng/mL | 2 h | 2.47 h | –
FC(F)(F)c1ccc(NC2=Nc3cc(Cl)cc(Cl)c3N3CCN=C23)cc1 [Compound B139, 7,9-dichloro-N-(4-(trifluoromethyl)phenyl)-1,2-dihydroimidazo[1,2-a] quinoxalin-4-amine] | 40.6 | 3260 ng·h/mL | 375 ng/mL | 2 h | 3.36 h | –
FC(F)(F)Oc1ccc(Nc2nc3cc(Cl)ccc3n3ccnc23)cc1Cl [Compound B108, 7-chloro-N-(3-chloro-4-(trifluoromethoxy)phenyl) imidazolo[1,2-a] quinoxalin-4-amine] | 22.5 | – | – | – | – | preventive and therapeutic effects on DSS-induced IBD (body weight, DAI, colon length) relative to ABX464 [1]: outperformed the reference drug ABX464
FC(F)(F)c1ccc(NC2=Nc3cccc(Cl)c3N3CCN=C23)cc1 [Compound B121, 9-chloro-N-(4-(trifluoromethyl)phenyl)-1,2-dihydroimidazo[1,2-a] quinoxalin-4-amine] | 29.5 | 1950 ng·h/mL | 378 ng/mL | 1 h | 2.12 h | –
FC(F)(F)Oc1ccc(Nc2nc3c(Cl)cccc3n3ccnc23)cc1 [Compound 2] | 16.5 | 933 ng·h/mL | 207 ng/mL | 4 h | 3.45 h | –
FC(F)(F)Oc1ccc(NC2=Nc3c(Br)cccc3N3CCN=C23)cc1Cl [Compound 84] | 15.5 | – | – | – | – | reduction in total DAI scores compared to the model group [1]: 41.59%; colon length as % of normal control values [1]: 96.89%; body weight gain percentage [1, 4]: 0.38%; Total Disease Activity Index (DAI) Scores [1]: 8.47; total DAI scores [1]: 8.47 points; Colon length [1]: 6.24 cm
Fc1cc(NC2=Nc3c(Cl)cccc3N3CCN=C23)ccc1OC(F)(F)F [Compound 71] | 25.3 | 1370 ng·h/mL | 274 ng/mL | 4 h | 3.41 h | –
FC1(F)Oc2ccc(NC3=Nc4c(Cl)cccc4N4CCN=C34)cc2O1 [Compound 70] | 16.4 | 1430 ng·h/mL | 357 ng/mL | 0.5 h | 2.32 h | –
FC(F)(F)c1ccc(NC2=Nc3c(Cl)cccc3N3CCN=C23)cc1 [Compound 68] | 29.5 | 879 ng·h/mL | 243 ng/mL | 0.5 h | 2.17 h | –
FC(F)(F)c1ccc(NC2=Nc3c(Cl)cccc3N3CCN=C23)cc1Cl [Compound 67] | 28.8 | 2030 ng·h/mL | 403 ng/mL | 4 h | 3.29 h | –
Fc1cc(Nc2nc3c(F)cc(Cl)cc3n3ccnc23)ccc1C(F)(F)F [Compound 59] | 20.5 | – | – | – | – | reduction in total DAI scores compared to the model group [1]: 40.90%; colon length as % of normal control values [1]: 100%; body weight gain percentage [1, 4]: 2.12%; Total Disease Activity Index (DAI) Scores [1]: 8.57; total DAI scores [1]: 8.57 points; Colon length [1]: 6.48 cm
FC(F)(F)Oc1ccc(Nc2nc3cccc(Br)c3n3ccnc23)cc1Cl [Compound B83, 9-bromo-N-(3-chloro-4-(trifluoromethoxy)phenyl) imidazolo[1,2-a] quinoxalin-4-amine] | – | – | – | – | – | preventive and therapeutic effects on DSS-induced IBD (body weight, DAI, colon length) relative to ABX464 [1]: outperformed the reference drug ABX464
FC(F)(F)c1ccc(Nc2nc3cccc(Cl)c3n3ccnc23)cc1Cl [Compound B54, 9-chloro-N-(3-chloro-4-(trifluoromethyl)phenyl)imidazolo [1,2-a]quinoxalin-4-amine] | 34.1 | 1330 ng·h/mL | 346 ng/mL | 0.5 h | 1.96 h | –
Fc1cc(Nc2nc3cccc(Cl)c3n3ccnc23)ccc1C(F)(F)F [Compound B53, 9-chloro-N-(3-Fluoro-4-(trifluoromethyl)phenyl)imidazolo [1,2-a]quinoxalin-4-amine] | 36.8 | – | – | – | – | –
FC(F)(F)Sc1ccc(Nc2nc3c(Cl)cccc3n3ccnc23)cc1 [Compound 15] | 12.7 | – | – | – | – | –
Fc1cc(Nc2nc3cccc(F)c3n3ccnc23)ccc1OC(F)(F)F [Compound B76, 9-fluoro-N-(3-fluoro-4-(trifluoromethoxy)phenyl) imidazolo[1,2-a] quinoxalin-4-amine] | 18.5 | – | – | – | – | –
Fc1cc(NC2=Nc3cc(Cl)cc(F)c3N3CCN=C23)ccc1OC(F)(F)F [Compound B131, 7-chloro-9-fluoro-N-(3-fluoro-4-(trifluoromethoxy)phenyl)-1,2-dihydroimidazo[1,2-a] quinoxalin-4-amine] | 27 | – | – | – | – | –
FC(F)(F)Oc1ccc(NC2=Nc3c(Br)cccc3N3CCN=C23)cc1 [Compound 79] | 17.8 | – | – | – | – | –
FC(F)(F)c1ccc(Nc2nc3ccc(Cl)cc3n3ccnc23)cc1 [Compound B103, 8-chloro-N-(4-(trifluoromethyl)phenyl) imidazolo[1,2-a] quinoxalin-4-amine] | 25.5 | – | – | – | – | –
